Measurements: patent US12091426B2, “Bifunctional degraders of hematopoietic progenitor kinase and therapeutic uses thereof” (Nurix Therapeutics, Inc., priority 2021, dated 2024)

Molecular target: T1, HPK1 (Homo sapiens, UniProt Q92918)
T1 construct: A HiBiT tag was introduced by CRISPR on the N terminus of HPK1 in Jurkat cells; host or cells: Jurkat cells (ATCC TIB-152), monoclonal line with CRISPR knock-in of HiBiT at the endogenous HPK1 locus
Assay: HPK1 Cellular HiBit Degradation Assay
Type: cell-based
Settings: HiBiT HPK1 Jurkat cells, 24 hrs; for DC50: concentration at which 50% of HPK1 was remaining, read-out: DC50 Category; for Dmax: Jurkat, maximum degradation vs DMSO vehicle control, read-out: Dmax Category
Summary of the method: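 HiBiT-HPK1 Jurkat (CRISPR, N-term tag), 3×10^4 cells/well, RPMI 1640 + 10% FBS; CTMs 10 uM–0.1 nM, 11 pts; 24 hrs, 37° C/5% CO2; lytic HiBiT luminescence; % remaining vs DMSO, parental background subtracted; 4-parameter fit → DC50, Dmax.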

T1 sequence (Q92918 whole entry): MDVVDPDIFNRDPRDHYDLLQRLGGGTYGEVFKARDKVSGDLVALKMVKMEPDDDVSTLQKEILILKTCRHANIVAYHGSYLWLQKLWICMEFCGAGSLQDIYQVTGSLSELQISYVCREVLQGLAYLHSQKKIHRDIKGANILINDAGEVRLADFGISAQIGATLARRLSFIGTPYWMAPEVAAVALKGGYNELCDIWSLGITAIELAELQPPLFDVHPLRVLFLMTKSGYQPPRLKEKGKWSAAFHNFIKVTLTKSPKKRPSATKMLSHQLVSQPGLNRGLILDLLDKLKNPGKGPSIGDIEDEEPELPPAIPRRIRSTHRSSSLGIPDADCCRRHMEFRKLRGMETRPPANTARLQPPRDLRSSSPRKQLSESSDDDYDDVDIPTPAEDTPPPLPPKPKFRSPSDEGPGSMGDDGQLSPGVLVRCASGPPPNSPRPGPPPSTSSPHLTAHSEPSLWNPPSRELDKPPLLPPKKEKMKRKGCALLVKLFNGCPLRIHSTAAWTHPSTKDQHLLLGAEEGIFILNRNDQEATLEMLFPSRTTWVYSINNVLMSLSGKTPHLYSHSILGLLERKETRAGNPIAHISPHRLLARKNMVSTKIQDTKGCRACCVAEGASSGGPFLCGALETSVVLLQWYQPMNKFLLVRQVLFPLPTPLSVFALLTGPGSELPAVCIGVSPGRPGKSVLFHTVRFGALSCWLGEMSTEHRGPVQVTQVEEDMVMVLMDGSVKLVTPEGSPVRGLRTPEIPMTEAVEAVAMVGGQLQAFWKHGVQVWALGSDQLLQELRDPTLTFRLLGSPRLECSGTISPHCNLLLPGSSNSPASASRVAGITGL

SMILES: CC(C)n1cnc2cc(-c3ccc4c(c3)N([C@H]3C[C@@H](N5CCCCC5)C3)C(=O)C43CCN(C(=O)[C@]4(C)CCN(C(=O)C5CCN(c6ccc(C7CCC(=O)NC7=O)c(F)c6)CC5)C4)CC3)nc(NC3CC3)c21 (mixture of isomers) [Example 185, (3RS)-3-(4-{4-[(3R)-3-({6-[4-(cyclopropylamino)-3-(propan-2-yl)-3H-imidazo[4,5-c]pyridin-6-yl]-2-oxo-1-[(1S,3S)-3-(piperidin-1-yl)cyclobutyl]-1,2-dihydrospiro[indole-3,4′-piperidin]-1′-yl}carbonyl)-3-methylpyrrolidine-1-carbonyl]piperidin-1-yl}-2-fluorophenyl)piperidine-2,6-dione]
- DC50: 100 to 500 nM
- Dmax: 70 to 85%

SMILES: CC(C)n1cnc2cc(-c3ccc4c(c3)N([C@H]3C[C@@H](N5CCCCC5)C3)C(=O)C43CCN(C(=O)[C@H]4CC[C@H](C(=O)N5CCC(N(C)c6ccc(C7CCC(=O)NC7=O)cc6)CC5)CC4)CC3)nc(NC3CC3)c21 (mixture of isomers) [Example 134, (3RS)-3-{4-[methyl({1-[(1R,4R)-4-({6-[4-(cyclopropylamino)-3-(propan-2-yl)-3H-imidazo[4,5-c]pyridin-6-yl]-2-oxo-1-[(1S,3S)-3-(piperidin-1-yl)cyclobutyl]-1,2-dihydrospiro[indole-3,4′-piperidin]-1′-yl}carbonyl)cyclohexanecarbonyl]piperidin-4-yl})amino]phenyl}piperidine-2,6-dione]
- DC50: 100 to 500 nM
- Dmax: 50 to 70%

SMILES: CC(C)n1cnc2cc(-c3ccc4c(c3)N([C@H]3C[C@@H](N5CCCCC5)C3)C(=O)C43CCN(C(=O)C4CCN(C(=O)[C@H]5CC[C@H](Oc6ccc(C7CCC(=O)NC7=O)cc6)CC5)CC4)CC3)nc(NC3CC3)c21 (mixture of isomers) [Example 59, (3RS)-3-(4-{[(1R,4R)-4-[4-({6-[4-(cyclopropylamino)-3-(propan-2-yl)-3H-imidazo[4,5-c]pyridin-6-yl]-2-oxo-1-[(1S,3S)-3-(piperidin-1-yl)cyclobutyl]-1,2-dihydrospiro[indole-3,4′-piperidin]-1′-yl}carbonyl)piperidine-1-carbonyl]cyclohexyl]oxy}phenyl)piperidine-2,6-dione]
- DC50: < 100 nM
- Dmax: 50 to 70%

SMILES: CC(C(=O)N1CCC2(CC1)C(=O)N([C@H]1C[C@@H](N3CCCCC3)C1)c1cc(-c3cc4ncn(C(C)C)c4c(NC4CC4)n3)ccc12)C1CCN(C(=O)C2CCN(c3ccc(C4CCC(=O)NC4=O)cn3)CC2)CC1 (mixture of isomers) [Example 187, (3RS)-3-(6-{4-[4-(1-{6-[4-(cyclopropylamino)-3-(propan-2-yl)-3H-imidazo[4,5-c]pyridin-6-yl]-2-oxo-1-[(1S,3S)-3-(piperidin-1-yl)cyclobutyl]-1,2-dihydrospiro[indole-3,4′-piperidin]-1′-yl}-1-oxopropan-2-yl)piperidine-1-carbonyl]piperidin-1-yl}pyridin-3-yl)piperidine-2,6-dione]
- DC50: < 100 nM
- Dmax: 70 to 85%

SMILES: Cc1cc(C2CCC(=O)NC2=O)ccc1O[C@H]1CC[C@H](C(=O)N2CCC(C)(C(=O)N3CCC4(CC3)C(=O)N([C@H]3C[C@@H](N5CCCCC5)C3)c3cc(-c5cc6ncn(C(C)C)c6c(NC6CC6)n5)ccc34)CC2)CC1 (mixture of isomers) [Example 156, (3RS)-3-(3-methyl-4-{[(1R,4R)-4-[4-({6-[4-(cyclopropylamino)-3-isopropylimidazo[4,5-c]pyridin-6-yl]-2-oxo-1-[(1S,3S)-3-(piperidin-1-yl)cyclobutyl]spiro[indole-3,4′-piperidin]-1′-yl}carbonyl)-4-methylpiperidine-1-carbonyl]cyclohexyl]oxy}phenyl)piperidine-2,6-dione]
- DC50: 100 to 500 nM
- Dmax: > 85%

SMILES: CC(C)n1cnc2cc(-c3ccc4c(c3)N([C@H]3C[C@@H](N5CC6CCC(C5)O6)C3)C(=O)C43CCN(C(=O)C4(C)CCN(C(=O)CC5CCN(c6ccc(C7CCC(=O)NC7=O)cn6)CC5)CC4)CC3)nc(NC3CC3)c21 (mixture of isomers) [Example 207, (3RS)-3-[6-(4-{2-[4-({6-[4-(cyclopropylamino)-3-(propan-2-yl)-3H-imidazo[4,5-c]pyridin-6-yl]-2-oxo-1-[(1S,3S)-3-{8-oxa-3-Azabicyclo[3.2.1]octan-3-yl}cyclobutyl]-1,2-dihydrospiro[indole-3,4′-piperidin]-1′-yl}carbonyl)-4-methylpiperidin-1-yl]-2-oxoethyl}piperidin-1-yl)pyridin-3-yl]piperidine-2,6-dione]
- DC50: 500 to 1000 nM
- Dmax: 50 to 70%

SMILES: CC(C)n1cnc2cc(-c3ccc4c(c3)N([C@H]3C[C@@H](N5CCCCC5)C3)C(=O)C43CCN(C(=O)CC4CCN(C(=O)C5CCN(c6ccc(C7CCC(=O)NC7=O)cn6)CC5)CC4)CC3)nc(NC3CC3)c21 (mixture of isomers) [Example 162, (3RS)-3-(6-{4-[4-(2-{6-[4-(cyclopropylamino)-3-(propan-2-yl)-3H-imidazo[4,5-c]pyridin-6-yl]-2-oxo-1-[(1S,3S)-3-(piperidin-1-yl)cyclobutyl]-1,2-dihydrospiro[indole-3,4′-piperidin]-1′-yl}-2-oxoethyl)piperidine-1-carbonyl]piperidin-1-yl}pyridin-3-yl)piperidine-2,6-dione]
- DC50: < 100 nM
- Dmax: 70 to 85%

SMILES: CC(C)n1cnc2cc(-c3ccc4c(c3)N([C@H]3C[C@@H](N5CCCCC5)C3)C(=O)C43CCN(C(=O)C4CN(C(=O)C5CCN(c6ccc(C7CCC(=O)NC7=O)cn6)CC5)C4)CC3)nc(Nc3ccccc3F)c21 (mixture of isomers) [Example 242, (3RS)-3-[6-(4-{3-[(6-{4-[(2-fluorophenyl)amino]-3-(propan-2-yl)-3H-imidazo[4,5-c]pyridin-6-yl}-2-oxo-1-[(1S,3S)-3-(piperidin-1-yl)cyclobutyl]-1,2-dihydrospiro[indole-3,4′-piperidin]-1′-yl)carbonyl]azetidine-1-carbonyl}piperidin-1-yl)pyridin-3-yl]piperidine-2,6-dione]
- DC50: < 100 nM
- Dmax: > 85%

SMILES: CC(C)n1cnc2cc(-c3ccc4c(c3)N([C@H]3C[C@@H](N5CCCCC5)C3)C(=O)C43CCN(C(=O)C4CCN(C(=O)C5CCN(c6ccc(C7CCC(=O)NC7=O)nc6)CC5)CC4)CC3)nc(Nc3ccccc3F)c21 (stereo partly drawn) [Example 85, 3-[5-(4-{4-[(6-{4-[(2-fluorophenyl)amino]-3-(propan-2-yl)-3H-imidazo[4,5-c]pyridin-6-yl}-2-oxo-1-[(1S,3S)-3-(piperidin-1-yl)cyclobutyl]-1,2-dihydrospiro[indole-3,4′-piperidin]-1′-yl)carbonyl]piperidine-1-carbonyl}piperidin-1-yl)pyridin-2-yl]piperidine-2,6-dione]
- DC50: < 100 nM
- Dmax: 70 to 85%

SMILES: CC(C)n1cnc2cc(-c3ccc4c(c3)N([C@H]3C[C@@H](N5CCCCC5)C3)C(=O)C43CCN(C(=O)C4(C)CCN(C(=O)C5CCN(c6ccc(N7CCC(=O)NC7=O)cn6)CC5(F)F)CC4)CC3)nc(NC3CC3)c21 (stereo partly drawn) [Example 153, 1-(6-{4-[4-({6-[4-(cyclopropylamino)-3-isopropylimidazo[4,5-c]pyridin-6-yl]-2-oxo-1-[(1S,3S)-3-(piperidin-1-yl)cyclobutyl]spiro[indole-3,4′-piperidin]-1′-yl}carbonyl)-4-methylpiperidine-1-carbonyl]-3,3-difluoropiperidin-1-yl}pyridin-3-yl)-1,3-diazinane-2,4-dione]
- DC50: < 100 nM
- Dmax: 70 to 85%

SMILES: CC(C)n1cnc2cc(-c3ccc4c(c3)N([C@H]3C[C@@H](N5CCCCC5)C3)C(=O)C43CCN(C(=O)[C@@H]4CCN(C(=O)[C@H]5CC[C@H](Oc6ccc(C7CCC(=O)NC7=O)cn6)CC5)C4)CC3)nc(NC3CCOCC3)c21 (mixture of isomers) [Example 19, (3RS)-3-(6-{[(1R,4R)-4-[(3R)-3-[(6-{4-[(oxan-4-yl)amino]-3-(propan-2-yl)-3H-imidazo[4,5-c]pyridin-6-yl}-2-oxo-1-[(1S,3S)-3-(piperidin-1-yl)cyclobutyl]-1,2-dihydrospiro[indole-3,4′-piperidin]-1′-yl)carbonyl]pyrrolidine-1-carbonyl]cyclohexyl]oxy}pyridin-3-yl)piperidine-2,6-dione]
- DC50: < 100 nM
- Dmax: 70 to 85%

SMILES: CC(C)n1cnc2cc(-c3ccc4c(c3)N([C@H]3C[C@@H](N5CCCCC5)C3)C(=O)C43CCN(C(=O)C4(C)CCN(C(=O)C5CCN(c6ccc(C7CCC(=O)NC7=O)nc6)CC5)CC4)CC3)nc(NC3CC3)c21 (mixture of isomers) [Example 118, (3RS)-3-(5-{4-[4-({6-[4-(cyclopropylamino)-3-(propan-2-yl)-3H-imidazo[4,5-c]pyridin-6-yl]-2-oxo-1-[(1S,3S)-3-(piperidin-1-yl)cyclobutyl]-1,2-dihydrospiro[indole-3,4′-piperidin]-1′-yl}carbonyl)-4-methylpiperidine-1-carbonyl]piperidin-1-yl}pyridin-2-yl)piperidine-2,6-dione]
- DC50: < 100 nM
- Dmax: 50 to 70%

SMILES: CC(C)n1cnc2cc(-c3ccc4c(c3)N([C@H]3C[C@@H](N5CCCCC5)C3)C(=O)C43CCN(C(=O)[C@@H]4CCN(C(=O)[C@H]5CC[C@H](N(C)c6ccc(C7CCC(=O)NC7=O)cn6)CC5)C4)CC3)nc(Nc3ccccc3F)c21 (mixture of isomers) [Example 127, (3RS)-3-(6-{METHYL [(1R,4R)-4-[(3R)-3-[(6-{4-[(2-fluorophenyl)amino]-3-(propan-2-yl)-3H-imidazo[4,5-c]pyridin-6-yl}-2-oxo-1-[(1S,3S)-3-(piperidin-1-yl)cyclobutyl]-1,2-dihydrospiro[indole-3,4′-piperidin]-1′-yl)carbonyl]pyrrolidine-1-carbonyl]cyclohexyl]amino}pyridin-3-yl)piperidine-2,6-dione]
- DC50: < 100 nM
- Dmax: > 85%
